Measurements reported in patent US20140342379A1, “Means and Methods for Assessing Gonadal Toxicity” (BASF SE, priority 2011, published 2014).
“And” between values parts separate entries of the source, which are not always exact repeats. Equal values may be shown once. Marks after values point to notes of the source that are not given here.

Tested on: male rats
Experiment: 28-day repeated dose study, plasma metabolite profiling (GC-MS, LC-MS), male rats
Format: in vivo, rat
Excerpt: Drinking water was also offered ad libitum.

CC(C=O)Cc1ccc(C(C)(C)C)cc1 (centres unmarked) [Lysmeral, 2-Methyl-3(4-tert.-butylphenyl)-propanal]
3-Hydroxybutyrate, plasma, treatment ratio versus control (day 7): 0.24* and 0.21*
3-O-Methylsphingosine (d18:1), plasma, treatment ratio versus control (day 7): 0.22
5-O-Methylsphingosine (d18:1), plasma, treatment ratio versus control (day 7): 0.19
5-Oxoproline, plasma, treatment ratio versus control (day 7): 0.65*
Arginine, plasma, treatment ratio versus control (day 7): 1.37*
Campesterol, plasma, treatment ratio versus control (day 7): 0.24*
Ceramide (d18:1,C24:0), plasma, treatment ratio versus control (day 7): 0.59*
Ceramide (d18:1,C24:1), plasma, treatment ratio versus control (day 7): 0.47*
Cholesterol, plasma, treatment ratio versus control (day 7): 0.3
Choline plasmalogen No 03, plasma, treatment ratio versus control (day 7): 0.51*
Coenzyme Q9, plasma, treatment ratio versus control (day 7): 0.21*
Coenzyme Q10, plasma, treatment ratio versus control (day 7): 0.33*
Glutamate, plasma, treatment ratio versus control (day 7): 0.72
Glutamine, plasma, treatment ratio versus control (day 7): 0.65*
Histidine, plasma, treatment ratio versus control (day 7): 1.21*
Homovanillic acid (HVA), plasma, treatment ratio versus control (day 7): 0.21*
Isopalmitic acid (C16:0), plasma, treatment ratio versus control (day 7): 0.46*
Lignoceric acid (C24:0), plasma, treatment ratio versus control (day 7): 0.36
Linoleic acid (C18:cis[9,12]2), plasma, treatment ratio versus control (day 7): 0.44*
Lysine, plasma, treatment ratio versus control (day 7): 6.14*
Myristic acid (C14:0), plasma, treatment ratio versus control (day 7): 0.54
Oleic acid (C18:cis[9]1), plasma, treatment ratio versus control (day 7): 0.87
Palmitic acid (C16:0), plasma, treatment ratio versus control (day 7): 0.42*
Palmitoleic acid (C16:cis[9]1), plasma, treatment ratio versus control (day 7): 0.66
Phosphatidylcholine (C16:0,C18:2), plasma, treatment ratio versus control (day 7): 0.89*
Phosphatidylcholine (C18:1,C18:2), plasma, treatment ratio versus control (day 7): 0.74*
Serine, plasma, treatment ratio versus control (day 7): 1.36*
Sphingomyelin (d18:1,C16:0), plasma, treatment ratio versus control (day 7): 0.84*
Sphingomyelin (d18:1,C24:0), plasma, treatment ratio versus control (day 7): 0.52*
Sphingomyelin (d18:2,C16:0), plasma, treatment ratio versus control (day 7): 0.58*
Stearic acid (C18:0), plasma, treatment ratio versus control (day 7): 0.34*
TAG (C16:0,C16:1), plasma, treatment ratio versus control (day 7): 0.47
Threonine, plasma, treatment ratio versus control (day 7): 1.46*
alpha-Tocopherol, plasma, treatment ratio versus control (day 7): 0.52*
beta-Sitosterol, plasma, treatment ratio versus control (day 7): 0.43*
erythro-Sphingosine, plasma, treatment ratio versus control (day 7): 0.21
threo-Sphingosine, plasma, treatment ratio versus control (day 7): 0.25
Lysophosphatidylcholine (C20:4), plasma, treatment ratio versus control (day 7, first listing in Table 3): 0.87*
Lysophosphatidylcholine (C20:4), plasma, treatment ratio versus control (day 7, second listing in Table 3): 0.67*
3-Hydroxybutyrate, plasma, treatment ratio versus control (day 14): 0.29* and 0.2*
3-O-Methylsphingosine (d18:1), plasma, treatment ratio versus control (day 14): 0.45*
5-O-Methylsphingosine (d18:1), plasma, treatment ratio versus control (day 14): 0.48*
Arginine, plasma, treatment ratio versus control (day 14): 1.59*
Campesterol, plasma, treatment ratio versus control (day 14): 0.43*
Ceramide (d18:1,C24:0), plasma, treatment ratio versus control (day 14): 0.59*
Ceramide (d18:1,C24:1), plasma, treatment ratio versus control (day 14): 0.38*
Cholesterol, plasma, treatment ratio versus control (day 14): 0.47*
Choline plasmalogen No 03, plasma, treatment ratio versus control (day 14): 0.66*
Coenzyme Q9, plasma, treatment ratio versus control (day 14): 0.27*
Coenzyme Q10, plasma, treatment ratio versus control (day 14): 0.24*
Dodecanol, plasma, treatment ratio versus control (day 14): 0.75*
Glutamate, plasma, treatment ratio versus control (day 14): 0.93
Glutamine, plasma, treatment ratio versus control (day 14): 0.8
Histidine, plasma, treatment ratio versus control (day 14): 1.37*
Homovanillic acid (HVA), plasma, treatment ratio versus control (day 14): 0.47*
Isopalmitic acid (C16:0), plasma, treatment ratio versus control (day 14): 0.49*
Lignoceric acid (C24:0), plasma, treatment ratio versus control (day 14): 0.52*
Linoleic acid (C18:cis[9,12]2), plasma, treatment ratio versus control (day 14): 0.57*
Lysine, plasma, treatment ratio versus control (day 14): 6.55*
Myristic acid (C14:0), plasma, treatment ratio versus control (day 14): 0.59*
Oleic acid (C18:cis[9]1), plasma, treatment ratio versus control (day 14): 1.01
Palmitic acid (C16:0), plasma, treatment ratio versus control (day 14): 0.56*
Palmitoleic acid (C16:cis[9]1), plasma, treatment ratio versus control (day 14): 0.55*
Phosphatidylcholine (C16:0,C18:2), plasma, treatment ratio versus control (day 14): 0.93*
Phosphatidylcholine (C18:1,C18:2), plasma, treatment ratio versus control (day 14): 0.79*
Serine, plasma, treatment ratio versus control (day 14): 1.54*
Sphingomyelin (d18:1,C16:0), plasma, treatment ratio versus control (day 14): 0.88*
Sphingomyelin (d18:1,C24:0), plasma, treatment ratio versus control (day 14): 0.62*
Sphingomyelin (d18:2,C16:0), plasma, treatment ratio versus control (day 14): 0.53*
Stearic acid (C18:0), plasma, treatment ratio versus control (day 14): 0.51*
TAG (C16:0,C16:1), plasma, treatment ratio versus control (day 14): 0.67*
Threonine, plasma, treatment ratio versus control (day 14): 1.74*
alpha-Tocopherol, plasma, treatment ratio versus control (day 14): 0.56*
beta-Sitosterol, plasma, treatment ratio versus control (day 14): 0.57*
erythro-Sphingosine, plasma, treatment ratio versus control (day 14): 0.51*
threo-Sphingosine, plasma, treatment ratio versus control (day 14): 0.5*
Lysophosphatidylcholine (C20:4), plasma, treatment ratio versus control (day 14, first listing in Table 3): 0.95*
Lysophosphatidylcholine (C20:4), plasma, treatment ratio versus control (day 14, second listing in Table 3): 0.61*
3-Hydroxybutyrate, plasma, treatment ratio versus control (day 28): 0.52* and 0.49*
3-O-Methylsphingosine (d18:1), plasma, treatment ratio versus control (day 28): 0.48*
5-O-Methylsphingosine (d18:1), plasma, treatment ratio versus control (day 28): 0.48*
5-Oxoproline, plasma, treatment ratio versus control (day 28): 0.74*
Arginine, plasma, treatment ratio versus control (day 28): 1.76*
Campesterol, plasma, treatment ratio versus control (day 28): 0.35*
Ceramide (d18:1,C24:0), plasma, treatment ratio versus control (day 28): 0.44*
Ceramide (d18:1,C24:1), plasma, treatment ratio versus control (day 28): 0.38*
Cholesterol, plasma, treatment ratio versus control (day 28): 0.49*
Choline plasmalogen No 03, plasma, treatment ratio versus control (day 28): 0.6*
Coenzyme Q9, plasma, treatment ratio versus control (day 28): 0.31*
Coenzyme Q10, plasma, treatment ratio versus control (day 28): 0.37*
Glutamate, plasma, treatment ratio versus control (day 28): 0.82*
Glutamine, plasma, treatment ratio versus control (day 28): 0.81*
Histidine, plasma, treatment ratio versus control (day 28): 1.56*
Homovanillic acid (HVA), plasma, treatment ratio versus control (day 28): 0.26*
Isopalmitic acid (C16:0), plasma, treatment ratio versus control (day 28): 0.34*
Lignoceric acid (C24:0), plasma, treatment ratio versus control (day 28): 0.6*
Linoleic acid (C18:cis[9,12]2), plasma, treatment ratio versus control (day 28): 0.38*
Lysine, plasma, treatment ratio versus control (day 28): 8.13*
Myristic acid (C14:0), plasma, treatment ratio versus control (day 28): 0.53*
Oleic acid (C18:cis[9]1), plasma, treatment ratio versus control (day 28): 0.81*
Palmitic acid (C16:0), plasma, treatment ratio versus control (day 28): 0.48*
Palmitoleic acid (C16:cis[9]1), plasma, treatment ratio versus control (day 28): 0.37*
Phosphatidylcholine (C16:0,C18:2), plasma, treatment ratio versus control (day 28): 0.92*
Phosphatidylcholine (C18:1,C18:2), plasma, treatment ratio versus control (day 28): 0.83*
Serine, plasma, treatment ratio versus control (day 28): 1.7*
Sphingomyelin (d18:1,C16:0), plasma, treatment ratio versus control (day 28): 0.79*
Sphingomyelin (d18:1,C24:0), plasma, treatment ratio versus control (day 28): 0.64*
Sphingomyelin (d18:2,C16:0), plasma, treatment ratio versus control (day 28): 0.55*
Stearic acid (C18:0), plasma, treatment ratio versus control (day 28): 0.55*
TAG (C16:0,C16:1), plasma, treatment ratio versus control (day 28): 0.66*
Threonine, plasma, treatment ratio versus control (day 28): 2.15*
beta-Sitosterol, plasma, treatment ratio versus control (day 28): 0.55*
erythro-Sphingosine, plasma, treatment ratio versus control (day 28): 0.51*
threo-Sphingosine, plasma, treatment ratio versus control (day 28): 0.51*
Lysophosphatidylcholine (C20:4), plasma, treatment ratio versus control (day 28, first listing in Table 3): 0.94*
Lysophosphatidylcholine (C20:4), plasma, treatment ratio versus control (day 28, second listing in Table 3): 0.5*
